# Laboratory results as given in patent US20040047880A1, “Component for vaccine” (priority 2000, published 2004).
# No end group written: not given here.
# Tested on: mAbs H44/24, H44/58, H44/70, H44/78, 4BE12C10
# Test: ELISA test for the peptide-on-phage mAb interaction
# Type: binding, mouse
# Conditions: peptide-on-phage coated at 5×10^11 particules/ml; positives tested a second time
# Protocol: To assess the binding of the mAbs to the numerous peptides-on-phage, all clones have been produced independently using the following protocol.
# A preculture of E. coli DH11S infected with the phage was grown overnight. A sample of this preculture was used to inoculate a new 50 ml culture with a starting OD600nm of 0.050. This culture was grown up to an OD600nm of 0.20 to 0.25 with vigorous shaking at 37° C. The culture was then slowed down for 15 minutes in order to allow the regeneration of pili. M13K07 helper phage was added at an MOI of 20, and superinfection was allowed for 15 more minutes at 37° C. with slow agitation. IPTG (1 mM final concentration) was then added and the culture was grown for 5 hours with vigorous agitation.
# A colony of K91kan containing the clone of interest (on a LB Tet plate) was added to 50 ml of LB supplemented with 20 μg/ml tetracycline and grown overnight at 37° C. with strong agitation.
# Culture was centrifuged for 15 minutes at 4000RPM; 0.15 volume of PEG-NaCl solution was added to the supernatant for precipitating the phage and kept overnight at 4° C. Phage were collected by centrifugation, 45 minutes at 4000RPM. After being resuspended in TBS, phage were heated 15 minutes at 65° C. to kill remaining bacteria and to denature soluble proteins present in the sample. The solution was then centrifuged and the pellet was discarded. Phage in the supernatant were then precipitated again as indicated above. Phage were finally resuspended in 200 μl of TBS. Concentration of phage particules was determined by measuring the ΔOD at 269 nm-320 nm.
# (§1) Phages were coated at 5×10^11 particules/ml on MaxiSorp multiwell plates. Coating was performed overnight at 4° C. with 100 μl/well. Plates were saturated with 5% (v/v) skimmed milk in TBS for 2 hours at 37° C. and washed 5 times with TBS-Tween20 0.05% (v/v). The mAbs were then incubated in the coated wells for 1 hour at 37° C., washed 5 times, and GAM-HRP conjugate (1500-fold dilution, Dako, Denmark) was added for 1 hour at 37° C. to detect the binding of the mAb to the phages. After 5 washings, the peroxidase activity was monitored by addition of the K-Blue® substrate (Neogen, Lexington, USA) at room temperature for 20 minutes. Reaction was stopped by addition of 25 μl of 2N H2SO4. Reading was performed at 450-630 nm. Each phage was coated in triplicate for testing with each mAb.
row,Sequence,Phage ELISA: positive with at least one mAb
1,AERSLWYYP [Peptide 83],positive
2,AITGVRARW (LOS peptide mimotope sequence) [Peptide 143],positive
3,ARWYPISQT (LOS peptide mimotope sequence) [Peptide 124],positive
4,CANSRPGGYLC (LOS peptide mimotope sequence) [Peptide 30],positive
5,CAPPGIAVRTC (not fully specified (bridges); cysteine pairing not given here) [Peptide 115],positive
6,CAPYSIFIGEC (not fully specified (bridges); cysteine pairing not given here) [Peptide 17],positive
7,CFARPFQGTWC (LOS peptide mimotope sequence) [Peptide 22],positive
8,CFGLIAFHPDC (LOS peptide mimotope sequence) [Peptide 27],positive
9,CHSVQPATRAC (LOS peptide mimotope sequence) [Peptide 131],positive
10,CIDAGSHGWLC (LOS peptide mimotope sequence) [Peptide 133],positive
11,CISEYAKGTTC (LOS peptide mimotope sequence) [Peptide 13],positive
12,CLAASADTAAC (LOS peptide mimotope sequence) [Peptide 139],positive
13,CLWRPIDPFLC (LOS peptide mimotope sequence) [Peptide 82],positive
14,CPKAPFSPFKC (LOS peptide mimotope sequence) [Peptide 132],positive
15,CPPPWSTHDC (LOS peptide mimotope sequence) [Peptide 141],positive
16,CPYTSWAREGC (LOS peptide mimotope sequence) [Peptide 140],positive
17,CQPIGPPYDRC (LOS peptide mimotope sequence) [Peptide 28],positive
18,CRFTYDPPFMC (LOS peptide mimotope sequence) [Peptide 51],positive
19,CRGLQGHIAYC (LOS peptide mimotope sequence) [Peptide 87],positive
20,CRPAFDPPYHC (LOS peptide mimotope sequence) [Peptide 54],positive
21,CSEPWSTSNC (LOS peptide mimotope sequence) [Peptide 142],positive
22,CSHAPPYDRVC [Peptide 14],positive
23,CSSLYYHGTAC (LOS peptide mimotope sequence) [Peptide 39],positive

row,Sequence,Phage ELISA: positive with at least one mAb
1,CSSYSYVHDSC [Peptide 50],positive
2,CTANVYFGTYC [Peptide 29],positive
3,CTHYSFYGDIC (LOS peptide mimotope sequence) [Peptide 66],positive
4,CTPLPDGGILC (LOS peptide mimotope sequence) [Peptide 103],positive
5,CYPQLSHANPC (LOS peptide mimotope sequence) [Peptide 105],positive
6,DSAPAVKSS (LOS peptide mimotope sequence) [Peptide 85],positive
7,EKKHFNYGT (LOS peptide mimotope sequence) [Peptide 144],positive
8,EKKRFESNT (LOS peptide mimotope sequence) [Peptide 145],positive
9,EQGYCTVNIEQCAKYR (LOS peptide mimotope sequence) [Peptide 146],positive
10,GPWHGPSSS (LOS peptide mimotope sequence) [Peptide 93],positive
11,HGRTLWYTP (LOS peptide mimotope sequence) [Peptide 55],positive
12,LKWGDGSSA (LOS peptide mimotope sequence) [Peptide 104],positive
13,NSPTSCKWLCNEKF (LOS peptide mimotope sequence) [Peptide 148],positive
14,PGWYDAHPT (LOS peptide mimotope sequence) [Peptide 86],positive
15,PLWYDPAPP (LOS peptide mimotope sequence) [Peptide 47],positive
16,PRPHFGAPP [Peptide 61],positive
17,RGSEGSFAR (LOS peptide mimotope sequence) [Peptide 45],positive
18,SNWYENTPT (LOS peptide mimotope sequence) [Peptide 58],positive
19,SPADCDYTTLCAKPT (LOS peptide mimotope sequence) [Peptide 147],positive
20,SQWRSAAPT (LOS peptide mimotope sequence) [Peptide 53],positive
21,WYIAPRKTL (LOS peptide mimotope sequence) [Peptide 63],positive
22,WYSAPENAL (LOS peptide mimotope sequence) [Peptide 88],positive
23,WYTTPTRPV (LOS peptide mimotope sequence) [Peptide 75],positive

# Tested on: mAb H44/58
# Test: Phage-ELISA with mAb H44/58
# Type: binding, mouse
# Conditions: peptide-on-phage
# Protocol: as §1
row,Sequence,Phage-ELISA result with mAb H44/58
1,CSHAPPYDRVC [Peptide 14],positive

# Tested on: mAb H44/58
# Test: SPOT peptide immunoblot, mAb H44/58
# Type: binding, mouse
# Conditions: Membrane 1 (linear peptide)
# Description: Another experiment for determining the best peptide candidates for immunisation trials is whether chemically synthesized peptides are recognized by at least one anti-MenB LOS mAb (and preferably not by irrelevant mAbs). This can be assessed on SPOT synthesized peptides (peptides synthesized directly on a cellulose membrane). This membrane can be tested with different mAbs by repetitive immunoblottings and chemiluminescent detection. Peptides may be synthesised with 3 residues originating from the pVIII protein sequence on each end of the peptide. Indeed, the primary structure of the peptides expressed in fusion with pVIII on the surface of the bacteriophage is as follows (x for any residue in the library):
# For example linear peptides comprising peptide No. 61 from Table 2 (GEFPRPHFGAPPDPA) and peptide No. 83 (GEFAERSLWYYPDPA) were synthesised on one membrane, and cyclised peptides comprising peptide No. 50 from Table 2 (GEFCSSYSYVHDSCGDP), peptide 14 (GEFCSHAPPYDRVCGDP) and peptide 25 (GEFCRAPPYDTIMCGDP) were synthesised on another.
# The protocol used to probe these membranes with mAbs was the one provided by Genosys, with some modifications, especially for the regeneration of membranes with cyclised peptides. […]
row,Sequence,SPOT recognition by mAb 58 (H44/58)
1,AERSLWYYP [Peptide 83],recognized
